# Target: BacD (Bacillus subtilis, UniProt P39641)
# Test: LC/MS and 1H-NMR of dipeptide product
# Type: biochemical
# Settings: 1 mM substrate, 3 mM L-Ala, 3 mM ATP, 5 mM MgCl2, 20 uM BacD, 50 mM potassium phosphate pH 8.0, room temperature
# Chain of BacD (P39641 whole entry): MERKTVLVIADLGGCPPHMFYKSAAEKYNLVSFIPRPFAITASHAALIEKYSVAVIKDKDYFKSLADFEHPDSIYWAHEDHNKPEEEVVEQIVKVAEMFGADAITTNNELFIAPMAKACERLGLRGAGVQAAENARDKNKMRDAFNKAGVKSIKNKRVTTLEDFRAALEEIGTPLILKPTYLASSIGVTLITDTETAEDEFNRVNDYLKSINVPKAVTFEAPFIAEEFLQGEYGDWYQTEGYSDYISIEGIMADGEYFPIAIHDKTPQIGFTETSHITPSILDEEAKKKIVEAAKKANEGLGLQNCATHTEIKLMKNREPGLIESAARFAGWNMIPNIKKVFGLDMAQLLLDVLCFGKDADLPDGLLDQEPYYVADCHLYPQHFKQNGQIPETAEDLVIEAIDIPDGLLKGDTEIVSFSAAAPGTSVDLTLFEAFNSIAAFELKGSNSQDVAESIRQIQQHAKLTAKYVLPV
structure (smiles),measurement,value
N[C@@H](C[C@H]1C=C[C@H](O)CC1)C(=O)O [4S-H4Tyr],LC/MS and 1H-NMR of dipeptide product,BacD would ligate L-Ala onto the N-terminus of both the 4S and 4R diastereomers

# — PMC3568925 (Biochemistry, 2013)
